Columns and labels:
KRAS(G12C) = KRAS(G12C) (Homo sapiens, UniProt P01116, G12C); test: BLI binding to KRAS(G12C); design: KRAS4B residues 1-174 containing G12C, G12V, G12D, G13D, Q61L, WT; His6 (N, cleaved yes); Avi-tag (N, cleaved yes); made in house; host or cells: E. coli BL21(DE3); settings: nucleotide state GTPγS
Excerpt: (§1) Protein expression and purification. All proteins used for monobody development and binding assays, including RAS constructs (KRAS4B residues 1-174 containing G12C, G12V, G12D, G13D, Q61L, WT, NRAS(WT), and HRAS(WT)), Monobodies, and RAF-1 RBD (residues 51-131) were produced with an N-terminal tag containing His6, Avi-tag for biotinylation and a TEV protease recognition site using the pHBT vector. The proteins were produced in E. coli BL21(DE3). To produce biotinylated proteins, E. coli BL21(DE3) with the pBirA plasmid was used as the host and grown in the presence of 50 μM of biotin. Expressed proteins were purified using Ni-Sepharose columns (GE Healthcare) via gravitational flow, followed by dialysis in Tris buffered saline (TBS, 50 mM Tris-Cl pH7.5 containing 150 mM NaCl) for non-RAS proteins. TBS containing 20 mM MgCl2 and 0.5 mM DTT was used for RAS proteins. Samples were further purified using a Superdex 75 size exclusion column on AKTA Pure systems (GE Healthcare). HRAS(WT) and HRAS(G12C) (residues 1-166) used for crystallization was produced as a fusion protein with His6 and yeast SUMO at the N terminus using an in-house vector described previously. […]
(§2) Biolayer interferometry (BLI) analysis. […] BLI signals were analyzed using Octet Data Analysis software (Molecular Devices).

KRAS(G12V) = biological target: T1, KRAS(G12V) (Homo sapiens, UniProt P01116, G12V); test: BLI binding to KRAS(G12V); settings: nucleotide state GTPγS
T1 construct: KRAS4B residues 1-174 containing G12C, G12V, G12D, G13D, Q61L, WT; His6 (N, cleaved yes); Avi-tag (N, cleaved yes); made in house; host or cells: E. coli BL21(DE3)
Excerpt: as §1, §2

## VSSVPTKLEVVAATPTSLLISWDAPAVTVFFYVITYGETGHGVGAFQAFKVPGSKSTATISGLKPGVDYTITVYARGYSKQGPYKPSPISINYRT [12VC1]
KRAS(G12C)
  koff: 0.0027 s⁻¹
KRAS(G12V)
  koff: 0.007 s⁻¹

From patent US12049483B2, “Selective and noncovalent inhibitors of oncogenic RAS mutants” (New York University, priority 2020, dated 2024)
